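Compound exposure: 48 hours, 5 concentrations, 96-well plates. At the GI50, growth is halved.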 The source made the active and inactive calls. Cut-off read from the data, not from the text of the source: active = GI50 up to about 1.1 µM and inactive = higher.
What was measured:
Test in all cases: growth of human tumour cells (NCI), 48 h
BT-549 = tested on: BT-549
DLD-1 = tested on: DLD-1
DMS-114 = tested on: DMS-114
HOP-18 = tested on: HOP-18
LXFL 529 = tested on: LXFL 529
M19-MEL = tested on: M19-MEL
SNB-78 = tested on: SNB-78
XF498 = tested on: XF498
RXF 631 = tested on: RXF 631

With COc1cc2c(c(O)c1OC)CC1CCC(=O)N1C2c1cccc2ccccc12 (configuration not stated) as the compound, how does the GI50 (BT-549) read?
The GI50 was 22.3 µM (inactive).

For Clc1ccc(-c2ccc(-c3nn4c(CNc5ccccc5)nnc4s3)o2)c(Cl)c1, which GI50 (BT-549) is on record?
Its GI50 is > 100 µM (inactive).

For COc1cc(N(CCC#N)CCC#N)ccc1/C=C1\SC(=S)NC1=O, which GI50 (BT-549) is on record?
Its GI50 is > 100 µM (inactive).

What does the source list for O=[N+]([O-])c1ccc(N2N=C(c3ccc(NCc4nc5ccccc5[nH]4)cc3)CC2c2ccco2)cc1 (configuration not stated)?
GI50 (DLD-1): 29.4 µM (inactive); GI50 (DMS-114): 18.1 µM (inactive); GI50 (HOP-18): 50.5 µM (inactive); GI50 (LXFL 529): 11.1 µM (inactive); GI50 (M19-MEL): 29.3 µM (inactive)

C#CC(C)(C)OCCCCOc1cc(O)c2c(=O)c3ccccc3n(C)c2c1 was tested. Which GI50 (DLD-1) did it give?
The GI50 was > 100 µM (inactive).

What about the GI50 (DMS-114) of the same compound?
The GI50 was 29.3 µM (inactive).

And the GI50 (HOP-18)?
The GI50 was > 100 µM (inactive).

What about the GI50 (LXFL 529) of the same compound?
The GI50 was > 100 µM (inactive).

What about the GI50 (M19-MEL) of the same compound?
The GI50 was > 100 µM (inactive).

And the GI50 (SNB-78)?
Its GI50 is > 100 µM (inactive).

What about the GI50 (XF498) of the same compound?
The GI50 was > 100 µM (inactive).

Which GI50 (BT-549) does the source give for C=C1CC(COc2ccc3c(C)c(C)c(=O)oc3c2C)(c2ccccc2)OC1=O (configuration not stated) here?
Its GI50 is 1.63 µM (inactive).

For CCOC(=O)c1sc2nc1CSc1sc(=S)sc1SCc1nc(sc1C(=O)OCC)-c1nc(c(C(=O)OCC)s1)CSc1sc(=S)sc1SCc1nc-2sc1C(=O)OCC, which GI50 (BT-549) is on record?
The GI50 was > 10 µM (inactive).

Which GI50 (DLD-1) does the source give for NC(=O)C(N)=O here?
Its GI50 is > 100 µM (inactive).

What about the GI50 (DMS-114) of the same compound?
The GI50 was > 100 µM (inactive).

What about the GI50 (HOP-18) of the same compound?
The GI50 was > 100 µM (inactive).

What about the GI50 (LXFL 529) of the same compound?
Its GI50 is > 100 µM (inactive).

What about the GI50 (M19-MEL) of the same compound?
The GI50 was > 100 µM (inactive).

And the GI50 (SNB-78)?
Its GI50 is > 100 µM (inactive).

And the GI50 (XF498)?
The GI50 was > 100 µM (inactive).

For O[C@H]1[C@H]2[C@H](O)C[C@H](CCOCc3ccccc3)CN2C[C@H]1O, which GI50 (BT-549) is on record?
The GI50 was > 100 µM (inactive).

How did the GI50 (BT-549) turn out when Cn1cnc([N+](=O)[O-])c1Sc1nc(N)nc2c1ncn2C1OC(CO)C(O)C1O (configuration not stated) was run?
The GI50 was 8.41 µM (inactive).

What about the GI50 (DLD-1) of the same compound?
The GI50 was 7.67 µM (inactive).

And the GI50 (DMS-114)?
The GI50 was 10.7 µM (inactive).

What about the GI50 (HOP-18) of the same compound?
The GI50 was 44.7 µM (inactive).

And the GI50 (LXFL 529)?
The GI50 was 45.8 µM (inactive).

What about the GI50 (M19-MEL) of the same compound?
Its GI50 is 35.2 µM (inactive).

And the GI50 (SNB-78)?
The GI50 was 7.26 µM (inactive).

What about the GI50 (XF498) of the same compound?
The GI50 was 6.87 µM (inactive).

Which results are given for CCCCN(CCCC)C(=O)C(=O)CC(=O)c1ccc(Br)cc1?
GI50 (DLD-1): > 100 µM (inactive); GI50 (DMS-114): > 100 µM (inactive); GI50 (HOP-18): > 100 µM (inactive); GI50 (LXFL 529): > 100 µM (inactive); GI50 (M19-MEL): > 100 µM (inactive); GI50 (SNB-78): > 100 µM (inactive); GI50 (XF498): > 100 µM (inactive)

Which GI50 (BT-549) does the source give for CC(=O)C1=C(C)O[C@@H]2O[C@H](COCc3ccccc3)[C@@H](OCc3ccccc3)[C@H](O)[C@@H]2S1 here?
Its GI50 is 21.8 µM (inactive).

Which GI50 (BT-549) does the source give for COc1ccc(S(=O)(=O)O)cc1NS(=O)(=O)c1ccc(C)cc1 here?
The GI50 was > 100 µM (inactive).

Which GI50 (BT-549) does the source give for CNC(=O)Nc1ccccc1 here?
Its GI50 is > 100 µM (inactive).

Which GI50 (BT-549) does the source give for Cc1ccc(/C=C/C(=O)c2c([O-])on[n+]2-c2ccccc2)cc1 here?
The GI50 was 2.72 µM (inactive).

With CC1CC/C(=C\c2ccc(N(C)C)cc2)C2=C1C(c1ccc(N(C)C)cc1)NC(=S)N2 (configuration not stated) as the compound, how does the GI50 (BT-549) read?
The GI50 was > 100 µM (inactive).

O=[N+]([O-])c1ccc2nc(Cl)n[n+]([O-])c2c1 was tested. Which GI50 (BT-549) did it give?
The GI50 was 16.2 µM (inactive).

With C/C(=N\O)c1ccc(Nc2nc3ccccc3c3occc23)cc1 as the compound, how does the GI50 (BT-549) read?
Its GI50 is 18.3 µM (inactive).

For CC1CC(N)=Nc2ccccc2N1 (configuration not stated), which GI50 (BT-549) is on record?
The GI50 was > 100 µM (inactive).

Which results are given for COc1cc(/C=C/c2ccc(/C=C/c3cc(OC)c(OC)c(OC)c3)cc2)cc(OC)c1OC?
GI50 (DLD-1): 42.3 µM (inactive); GI50 (DMS-114): 22.4 µM (inactive); GI50 (HOP-18): 32.1 µM (inactive); GI50 (LXFL 529): 11.9 µM (inactive); GI50 (M19-MEL): 32.9 µM (inactive); GI50 (SNB-78): 26.1 µM (inactive); GI50 (XF498): 17 µM (inactive)

N#Cc1c(N)nc2[nH]nc(N)c2c1-c1ccc(Cl)cc1 was tested. Which GI50 (BT-549) did it give?
Its GI50 is 2.73 µM (inactive).

COc1cc(C2c3cc4c(cc3OC(N3CCNCC3)C2C)OCO4)cc(OC)c1OC (configuration not stated) was tested. Which GI50 (BT-549) did it give?
The GI50 was 0.579 µM (active).

How did the GI50 (BT-549) turn out when C[C@@H]1O[C@@H](O[C@H]2CC[C@]3(C=O)[C@H]4CC[C@]5(C)[C@@H](C6=CC(=O)OC6)CC[C@]5(O)[C@@H]4CC[C@]3(O)C2)[C@H](O)[C@H](O)[C@H]1O [CONVALLATOXIN] was run?
Its GI50 is 1.32e-05 µM (active).

For COc1ccc(-c2oc3c(OC)c(OC)c(OC)c(O)c3c(=O)c2OC)cc1OC, which GI50 (BT-549) is on record?
Its GI50 is 34.4 µM (inactive).

With CC1=CC[C@H](C(C)C)C(C(O)[C@@H](C)O[Si](c2ccccc2)(c2ccccc2)C(C)(C)C)C1=O (some centres not stated) as the compound, how does the GI50 (BT-549) read?
The GI50 was 18.9 µM (inactive).

Which GI50 (DMS-114) does the source give for CC(=O)NNc1nc(C)c(C(=O)NNC(=O)C(=O)Nc2ccc([N+](=O)[O-])cc2C#N)s1 here?
The GI50 was > 100 µM (inactive).

What about the GI50 (LXFL 529) of the same compound?
The GI50 was 44.3 µM (inactive).

And the GI50 (M19-MEL)?
The GI50 was > 100 µM (inactive).

What about the GI50 (SNB-78) of the same compound?
Its GI50 is > 100 µM (inactive).

And the GI50 (XF498)?
Its GI50 is > 100 µM (inactive).

How did the GI50 (DLD-1) turn out when Cc1c(C(=O)CSc2nc3ccccc3c(=O)n2-c2ccccc2)c(=O)n(-c2ccccc2)n1C was run?
Its GI50 is > 100 µM (inactive).

And the GI50 (DMS-114)?
Its GI50 is > 100 µM (inactive).

And the GI50 (M19-MEL)?
The GI50 was 52.7 µM (inactive).

And the GI50 (SNB-78)?
The GI50 was 45.5 µM (inactive).

What about the GI50 (XF498) of the same compound?
Its GI50 is 43.2 µM (inactive).

With CCOC(=O)CO/N=C\C1=CC(=O)C2CC1C2(C)C (configuration not stated) as the compound, how does the GI50 (BT-549) read?
The GI50 was > 100 µM (inactive).

C/C(=N\[N+](C)(C)C)c1ccc(C)c(C)c1 was tested. Which GI50 (BT-549) did it give?
The GI50 was 58.3 µM (inactive).

Which GI50 (DLD-1) does the source give for O=C(NCCCl)SCCO here?
The GI50 was > 100 µM (inactive).

What about the GI50 (DMS-114) of the same compound?
The GI50 was > 100 µM (inactive).

What about the GI50 (LXFL 529) of the same compound?
Its GI50 is > 100 µM (inactive).

What about the GI50 (M19-MEL) of the same compound?
The GI50 was > 100 µM (inactive).

And the GI50 (RXF 631)?
Its GI50 is > 100 µM (inactive).

And the GI50 (SNB-78)?
Its GI50 is > 100 µM (inactive).

How did the GI50 (DLD-1) turn out when c1ccc2c(C3NCCc4nc[nH]c43)cccc2c1 (configuration not stated) was run?
The GI50 was > 100 µM (inactive).

What about the GI50 (DMS-114) of the same compound?
The GI50 was > 100 µM (inactive).

What about the GI50 (HOP-18) of the same compound?
Its GI50 is > 100 µM (inactive).

What about the GI50 (LXFL 529) of the same compound?
The GI50 was > 100 µM (inactive).

And the GI50 (M19-MEL)?
The GI50 was > 100 µM (inactive).

And the GI50 (SNB-78)?
Its GI50 is > 100 µM (inactive).

With CCOP(=O)(OCC)C(N)Cc1ccc(OC)c(OC)c1 (configuration not stated) as the compound, how does the GI50 (BT-549) read?
The GI50 was > 100 µM (inactive).

With O=C1/C(=C/c2ccccc2)Oc2cc(O)ccc21 as the compound, how does the GI50 (BT-549) read?
Its GI50 is > 100 µM (inactive).

With OCC12C3C4C5C3C1C5C42 (configuration not stated) as the compound, how does the GI50 (BT-549) read?
Its GI50 is > 100 µM (inactive).
